According to patent US4673562A, “Bisamide bisthiol compounds useful for making technetium radiodiagnostic renal agents” (The Children's Medical Center Corporation, priority 1983, dated 1987):
Values joined by “and” are separate entries in the source; they are usually repeats but may differ in a detail not shown here. Identical values can stand only once.

Key:
[1] = Gamma camera: % total dose in bladder, 99mTc complexes coinjected with 131I-OIH into normal dogs (Tables I, III); type: in vivo, dog; design: Comparison of % total dose in bladder versus 131I-OIH, column headed by drawing 19 (± s.d.): unit not given here; settings: for % Total Dose In Bladder (gamma camera data) / pharmacokinetic behavior of the diastereomers / rate of excretion in the urine: normal dogs; for % Total Dose In Bladder (gamma camera data): single animals; for % total dose in bladder at 35 minutes, Average 99mTc (± s.d) / Comparison of % total dose in bladder versus 131I-OIH, column headed by drawing 19 (± s.d.): Table III; for % total dose in bladder at 35 minutes, Average 99mTc (± s.d): average of dogs; for Comparison of % total dose in bladder versus 131I-OIH, column headed by drawing 19 (± s.d.): dogs; for rate of excretion in the urine: versus 131I-OIH
Experimental: The two fractions collected from the products of synthesis in each case were denoted (XVIA), (XVIB), (XXXIA), and (XXXIB), respectively.
Images were recorded at 1, 5, 10, 15, 20, 25, 30 and 35 minutes after administration. The initial image at one minute was used to collect 750,000 counts. All subsequent images were exposed for the same length of time as this first image, and the number of counts noted. […] In this way, the counts collected in the camera images cound be related to absolute activity levels (mCi or μCi). The animals were then observed until the urine samples were free of ^99m Tc.
The values represent the calculated % total dose in the camera region of interest set over the bladder.

[2] = Biodistribution in Swiss Webster albino male mice, coinjected with 131I-OIH (Tables IV, V); type: in vivo, mouse; settings: for clearance into the urine: mice, versus 131I-OIH
Experimental: The diastereomers (XVIA) and (XVIB) were synthesized and then isolated by high pressure liquid chromatography as described previously, and their biodistributions obtained in groups in six Swiss Webster albino male mice. […] The mice were then placed in metabolic cages to collect urine. At 10 and 120 minutes after injection, the penis was ligated, the mice killed with chloroform vapor, and the organs disected.

[3] = Average % total dose in urine samples of dogs (Table II); type: in vivo, dog; settings: mean
Excerpt: The diastereomeric ^99m Tc complexes formed by reduction of pertechnetate in the presence of (2-benzoylthioacetyl)- glycyl-(S-benzoyl)-cysteine methyl ester (compound XVI) and N-2-(benzoylthio)ethyl)-N'-1-carbomethoxy-(2-benzoylthio)ethyl]oxamide (compound XXXI) were synthesized and separated by high pressure liquid chromatography. The two fractions collected from the products of synthesis in each case were denoted (XVIA), (XVIB), (XXXIA), and (XXXIB), respectively.
Samples of each fraction were mixed with appropriate amounts of ^131 I-OIH and coinjected into normal dogs placed under a gamma camera. Images were recorded at 1, 5, 10, 15, 20, 25, 30 and 35 minutes after administration. The initial image at one minute was used to collect 750,000 counts. All subsequent images were exposed for the same length of time as this first image, and the number of counts noted. Immediately after each count, a urine sample was drawn from the bladder via a indwelling catheter, and the ^99m Tc ANd ^131 I activity determined using an ionization chamber. In this way, the counts collected in the camera images cound be related to absolute activity levels (mCi or μCi). The animals were then observed until the urine samples were free of ^99m Tc.
In Table II can be seen the average % total dose valus observed in the urine samples collected at each time point. Also quoted in parentheses are the standard deviation and standard error of the mean.

[4] = Table IV, 10 min, XVI A and 131I-OIH coinjected
[5] = Table IV, 120 min, XVI A and 131I-OIH coinjected
[6] = Table V, 10 min, XVI B and 131I-OIH coinjected
[7] = Table V, 120 min, XVI B and 131I-OIH coinjected

| Compound | % Total Dose In Bladder (gamma camera data) ([1]; 5 min post injection, 5 min) | % Total Dose In Bladder (gamma camera data) ([1]; 10 min post injection, 10 min) | % Total Dose In Bladder (gamma camera data) ([1]; 15 min post injection, 15 min) | % Total Dose In Bladder (gamma camera data) ([1]; 20 min post injection, 20 min) | % Total Dose In Bladder (gamma camera data) ([1]; 25 min post injection, 25 min) | % Total Dose In Bladder (gamma camera data) ([1]; 30 min post injection, 30 min) | % Total Dose In Bladder (gamma camera data) ([1]; 35 min post injection, 35 min) | % total dose in bladder at 35 minutes, Average 99mTc (± s.d) ([1]; 35 min) [% total dose] | Comparison of % total dose in bladder versus 131I-OIH, column headed by drawing 19 (± s.d.) ([1]; 35 min) | pharmacokinetic behavior of the diastereomers [1] | rate of excretion in the urine [1] | clearance into the urine [2] | Average % Total Dose in Urine Samples ([3]; 5 min post injection, 5 min) [% total dose] | Average % Total Dose in Urine Samples ([3]; 10 min post injection, 10 min) [% total dose] | Average % Total Dose in Urine Samples ([3]; 15 min post injection, 15 min) [% total dose] | Average % Total Dose in Urine Samples ([3]; 20 min post injection, 20 min) [% total dose] | Average % Total Dose in Urine Samples ([3]; 25 min post injection, 25 min) [% total dose] | Average % Total Dose in Urine Samples ([3]; 30 min post injection, 30 min) [% total dose] | Average % Total Dose in Urine Samples ([3]; 35 min post injection, 35 min) [% total dose] | other results |
| --- | --- | --- | --- | --- | --- | --- | --- | --- | --- | --- | --- | --- | --- | --- | --- | --- | --- | --- | --- | --- |
| O=C(O)C1C[S][Tc-]23(=[O])[S]CC(=O)[N]2CC(=O)[N]13 (single isomer, unassigned) [XVIA] | 13.13 % total dose and 9.63 % total dose and 3.25 % total dose | 38.08 % total dose and 34.15 % total dose and 33.73 % total dose | 49.99 % total dose and 47.44 % total dose and 46.89 % total dose | 57.29 % total dose and 59.01 % total dose and 56.40 % total dose | 63.73 % total dose and 64.39 % total dose and 62.63 % total dose | 63.67 % total dose and 66.95 % total dose and 58.77 % total dose | 66.64 % total dose and 72.79 % total dose and 63.08 % total dose | 67.50 | 91.71 | identical | comparable rates of excretion to each other and to OIH | cleared rapidly into the urine at comparable rates to each other and to the radiopharmaceutical ^131 I-OIH | 8.67 | 35.32 | 48.11 | 57.57 | 63.25 | 63.20 | 67.50 | Blood, % total dose per organ ± s.d. [2, 4]: 2.24 ± 0.33 % total dose per organ; Intestine, % total dose per organ ± s.d. [2, 4]: 1.07 ± 0.20 % total dose per organ; Kidneys, % total dose per organ ± s.d. [2, 4]: 3.19 ± 0.41 % total dose per organ; Liver, % total dose per organ ± s.d. [2, 4]: 1.39 ± 0.31 % total dose per organ; Stomach, % total dose per organ ± s.d. [2, 4]: 0.10 ± 0.01 % total dose per organ; Urine, % total dose ± s.d. [2, 4]: 65.01 ± 9.7 % total dose per organ; Blood, % total dose per organ ± s.d. [2, 5]: 0.05 ± 0.01 % total dose per organ; Intestine, % total dose per organ ± s.d. [2, 5]: 0.99 ± 0.59 % total dose per organ; Kidneys, % total dose per organ ± s.d. [2, 5]: 0.11 ± 0.04 % total dose per organ; Liver, % total dose per organ ± s.d. [2, 5]: 0.19 ± 0.03 % total dose per organ; Stomach, % total dose per organ ± s.d. [2, 5]: 0.21 ± 0.47 % total dose per organ; Urine, % total dose ± s.d. [2, 5]: 89.87 ± 2.70 % total dose per organ |
| O=C(O)C1C[S][Tc-]23(=[O])[S]CC(=O)[N]2CC(=O)[N]13 (single isomer, unassigned) [XVIB] | 12.31 % total dose and 10.03 % total dose and 19.60 % total dose | 28.53 % total dose and 33.78 % total dose and 36.51 % total dose | 39.47 % total dose and 45.88 % total dose and 47.52 % total dose | 45.09 % total dose and 53.55 % total dose and 55.57 % total dose | 48.09 % total dose and 60.94 % total dose and 59.98 % total dose | 53.05 % total dose and 64.60 % total dose and 70.00 % total dose | 54.63 % total dose and 73.12 % total dose and 71.57 % total dose | 66.44 | 92.25 | identical | comparable rates of excretion to each other and to OIH | cleared rapidly into the urine at comparable rates to each other and to the radiopharmaceutical ^131 I-OIH | 13.98 | 32.94 | 44.29 | 51.40 | 56.34 | 62.55 | 66.44 | Blood, % total dose per organ ± s.d. [2, 6]: 1.47 ± 0.72 % total dose per organ; Intestine, % total dose per organ ± s.d. [2, 6]: 0.48 ± 0.18 % total dose per organ; Kidneys, % total dose per organ ± s.d. [2, 6]: 4.41 ± 3.6 % total dose per organ; Liver, % total dose per organ ± s.d. [2, 6]: 0.79 ± 0.49 % total dose per organ; Stomach, % total dose per organ ± s.d. [2, 6]: 0.06 ± 0.03 % total dose per organ; Urine, % total dose ± s.d. [2, 6]: 79.32 ± 5.1 % total dose per organ; Blood, % total dose per organ ± s.d. [2, 7]: 0.13 ± 0.10 % total dose per organ; Intestine, % total dose per organ ± s.d. [2, 7]: 0.40 ± 0.17 % total dose per organ; Kidneys, % total dose per organ ± s.d. [2, 7]: 0.08 ± 0.07 % total dose per organ; Liver, % total dose per organ ± s.d. [2, 7]: 0.11 ± 0.06 % total dose per organ; Stomach, % total dose per organ ± s.d. [2, 7]: 0.07 ± 0.12 % total dose per organ; Urine, % total dose ± s.d. [2, 7]: 91.47 ± 1.1 % total dose per organ |
